Reference: US20040110732A1, “Pharmaceutical composition for transdermal or transmucosal administration comprising at least one progestin and/or at least one oestrogen, process for preparing it and uses thereof” (BESINS INTERNATIONAL BELGIQUE, priority 2002, published 2004)

Experiment: In vitro percutaneous absorption of 3H estradiol in Franz-type diffusion cells
Description: The in vitro percutaneous absorption was studied quantitatively on biopsies of dermatomed human ventral skin, placed in a 1.77 cm^2 Franz static diffusion cell, which allows the dermis to be placed in contact with a survival liquid into which the substance absorbed through the skin will be dosed. The survival liquid consists of a solution of 9 g/L sodium chloride supplemented with 15 g/L of serum albumin. The cells are placed under ambient atmosphere and thermostatically maintained at 37° C. 10 μl of preparation are applied to the entire surface of the epidermis circumscribed by the glass cylinder. During the experiment, samples of the survival liquid are taken at times 2 h, 4 h, 6 h, 8 h and 24 h. For each time, the survival liquid taken is replaced with fresh liquid.

In the case of `C[C@]12CC[C@@H]3c4ccc(O)cc4CC[C@H]3[C@@H]1CC[C@@H]2O` [estradiol, 17β-estradiol], the “cumulative absorption at 24 hours of estradiol” value (control of the ethylglycolic acid test: aqueous-alcoholic estradiol 0.06% solution without hydroxy acid) is reported as 5.26%±1.26%, the “percutaneous absorption of estradiol” value (control of the glycolic acid test: aqueous-alcoholic estradiol 0.06% solution without hydroxy acid) is reported as 6.96%±2.95% and the “percutaneous absorption of estradiol at 24 hours” value (control of the lactic acid test: aqueous-alcoholic solution of estradiol 0.06%, 50% absolute alcohol, no hydroxy acid) is reported as 5.50%±1.76%. The “cumulative absorption at 24 hours of estradiol” value (ethylglycolic acid at 5%, estradiol 0.06%) was 8.90%±1.29%, the “percutaneous absorption of estradiol” value (glycolic acid at 5% in aqueous-alcoholic solution containing 40% absolute ethanol, estradiol 0.06%) was 17.73%±2.96% and the “flows between 8 and 24 hours” value (lactic acid at 5% in 50% ethanol solution, compared with the control) was “significantly increasing”. For the same compound, the “percutaneous absorption of estradiol at 24 hours” value (lactic acid at 5% in aqueous-alcoholic solution containing 50% ethanol, estradiol 0.06%) was 13.80%±6.78%.
